{"source": "patent US10272080B2", "about": "“Selective dopamine D4 receptor agonists for treatment of working memory deficits” (priority 2013, dated 2019)", "key": {"PNE mice": {"tested_on": "PNE mice", "assay": "Y-maze spontaneous alternation assay in prenatal nicotine exposure (PNE) mice", "format": "in vivo, mice (C57/B6)", "settings": "for changes in spontaneous alternations in PNE mice (Y-maze): PNE mice only, FIG. 6, N=8-9; for spontaneous alternations in the PNE mice, comparison of methylphenidate and PD 168077: FIG. 10, n=9-10 per group", "experimental": "(§1) A prenatal nicotine exposure (PNE) mouse model to screen for drugs that alleviate the symptoms of ADHD and associated working memory deficits is developed.^13,14 In this model, adult female C57/B6 mice are exposed to nicotine (100 μg/ml nicotine and 2% saccharin in drinking water, pH 7.2) starting 4-6 weeks prior to mating with drug-naïve male mice, and throughout their pregnancies. Two groups of age- and bodyweight-matched female mice are used as controls. In the saccharin-only (SAC) control group, mice were exposed to saccharin alone (2% saccharin in drinking water, pH 7.2), and mice in the plain drinking water (WATER) control group were exposed to drinking water without any additives. On the day the mice littered, the litter size was standardized to contain 6-8 offspring (4 males and 4 females, whenever possible). Within 48 hours of birth offspring from the PNE, SAC and WATER groups were removed from their biological mothers and cross fostered to drug-naïve nursing dams. At the age of 90 days (postnatal day 90; P90), male offspring from each group were used in experimental analyses.\n(§2) On postnatal day 90 (P90), a Y-maze assay is used to examine changes in spontaneous alternation in the PNE mouse model.\nIn additional experiments, saline, selective D1 receptor agonist (A-77636), selective D2/D3 receptor agonist (LY 171555), and selective D4 receptor agonist (PD 168077) are administered to the PNE and SAC mice followed with the assay of spontaneous alternations using the Y-maze.\nMethylphenidate, the classic stimulant treatment for ADHD, is examined for its efficacy in alleviating working memory deficits in the PNE mice. It is disclosed that methylphenidate increases extracellular dopamine in the frontal cortex of mice.^1,14 In the example of the present invention, saline or a therapeutic equivalent dose of methylphenidate^18 is administered to PNE and SAC mice. The PNE and SAC mice administered saline or a therapeutic equivalent dose of methylphenidate are assayed for spontaneous alternations in the Y-maze."}, "SAC mice": {"tested_on": "SAC mice", "assay": "Y-maze spontaneous alternation assay in saccharin-only (SAC) control mice", "format": "in vivo, mice (C57/B6)", "experimental": "as §1\nOn postnatal day 90 (P90), a Y-maze assay is used to examine changes in spontaneous alternation in the PNE mouse model. […]"}, "dopamine D4 receptor": {"tested_on": "dopamine D4 receptor", "assay": "GTPγS binding assay, D4 receptor activity in frontal cortical membrane preparations after methylphenidate treatment", "format": "biochemical, mice", "settings": "FIG. 9", "experimental": "Following the Y maze assay, GTPγS receptor binding assay is performed to examine the dopamine receptor signaling in mice of different groups and therefore to determine which dopamine subtypes are activated. GTPγS binding assay is used to measure agonist-induced dopamine receptor-G-protein coupling in membrane preparations obtained from specific brain regions such as the frontal cortex.^17 This assay uses pharmacological compounds that selectively activate each receptor subtype. Since compounds selective for each of the 5 dopamine receptor subtypes are not available yet, testing is limited to assaying activities of the D2/D3 and D4 receptor only. In this assay, a D2 receptor agonist LY 171555 and a selective D4R agonist PD 168077, both in 30 μM, are used to exam the activities of D2/D3 receptor and D4 receptor, respectively.\nD2/D3 and D4 receptor activities are also analyzed using GTPγS binding assays with frontal cortical membrane preparations from PNE and SAC mice following the methylphenidate treatment. Increases are found in D4 agonist-induced G-protein coupling in the frontal cortices of PNE mice following the methylphenidate treatment, compared to saline treatment (Panel A, FIG. 9). […]"}, "dopamine D2/D3 receptors": {"tested_on": "dopamine D2/D3 receptors", "assay": "GTPγS binding assay, D2/D3 receptor activity in frontal cortical membrane preparations after methylphenidate treatment", "format": "biochemical", "settings": "PNE or SAC mice after methylphenidate treatment, FIG. 9", "description": "D2/D3 and D4 receptor activities are also analyzed using GTPγS binding assays with frontal cortical membrane preparations from PNE and SAC mice following the methylphenidate treatment. […] Mean±SEM, n=10-11 per group."}, "drug naïve mice": {"tested_on": "drug naïve mice", "assay": "Y-maze spontaneous alternation in drug naïve (WATER group) mice with pharmacological blockade of the D4 receptor", "format": "in vivo, mice (C57/B6)", "settings": "drug naïve mice given D4 antagonist L 745087, Panel B of FIG. 7", "experimental": "as §1, §2"}}}
{"compound": "CCCN1CCC[C@@H]2Cc3n[nH]cc3C[C@H]21", "note": "[LY 171555]", "values": [{"measurement": "changes in spontaneous alternations in PNE mice (Y-maze)", "setting": "PNE mice", "result": "neither the D1 nor the D2/D3 agonist produces significant changes"}]}
{"compound": "COC(=O)C(c1ccccc1)C1CCCCN1", "note": "(stereo not shown) [methylphenidate]", "values": [{"measurement": "spontaneous alternations in the PNE mice, comparison of methylphenidate and PD 168077", "setting": "PNE mice", "result": "increase spontaneous alternations"}, {"measurement": "spontaneous alternation in PNE mice (Y-maze), Mean±SEM", "setting": "PNE mice; single oral 0.75 mg/kg about 30 minutes before the Y maze assay, saline about 48.0±2.2, FIG. 8", "result": "about 57.1±1.8"}, {"measurement": "difference in spontaneous alternations between methylphenidate-exposed PNE mice and saline-exposed SAC control mice", "setting": "PNE mice; single oral 0.75 mg/kg, FIG. 8", "result": "no longer a significant difference"}, {"measurement": "spontaneous alternations in the SAC control group (Y-maze)", "setting": "SAC mice; single oral 0.75 mg/kg, FIG. 8", "result": "no significant effect"}, {"measurement": "activity of D4 receptor in the prefrontal cortex (D4 agonist-induced G-protein coupling), Mean±SEM", "setting": "dopamine D4 receptor; MPH treated PNE mice, saline treated about 92.0±3.5", "result": "about 131.6±11.6"}, {"measurement": "D4 receptor activity in the SAC group", "setting": "dopamine D4 receptor; SAC mice receiving methylphenidate treatment", "result": "no significant change"}, {"measurement": "D2/D3 receptor coupling to G-protein in the frontal cortices", "setting": "dopamine D2/D3 receptors", "result": "does not produce significant alterations"}]}
{"compound": "Cc1cccc(C(=O)NCN2CCN(c3ccccc3C#N)CC2)c1", "note": "[PD 168077, N-([4-(2-cyanophenyl)piperazin-1-yl]methyl)-3-methylbenzamide]", "values": [{"measurement": "spontaneous alternations in the PNE mice, comparison of methylphenidate and PD 168077", "setting": "PNE mice", "result": "greater than that of MPH"}, {"measurement": "working memory in prenatal nicotine exposure mouse models", "setting": "PNE mice; PD 168077 about 10 mg per kilogram body weight", "result": "shows improvement in working memory"}, {"measurement": "working memory in prenatal nicotine exposure mouse models", "setting": "PNE mice; PD 168077 about 20 mg per kilogram body weight", "result": "shows greater improvement in working memory"}, {"measurement": "difference in spontaneous alternations between the PNE group and the SAC group after administration", "setting": "PNE mice; after PD 168077 administration, FIG. 5", "result": "no statistically significant difference"}, {"measurement": "spontaneous alternations in the PNE mice (Y-maze)", "setting": "PNE mice; dose from about 10 mg/kg to about 20 mg/kg, FIG. 5", "result": "produces improvement in spontaneous alternations in the PNE mice in a dose dependent manner"}, {"measurement": "change in spontaneous alternations in the SAC group (Y-maze)", "setting": "SAC mice; 20 mg/kg, FIG. 5", "result": "the change is not significant"}, {"measurement": "effect on L 745087 antagonist-induced decrease in spontaneous alternations", "setting": "drug naïve mice", "result": "abolishes the antagonist-induced decreases in spontaneous alternations in a dose-dependent manner"}]}
{"compound": "NC[C@@H]1O[C@H](C23CC4CC(CC(C4)C2)C3)Cc2c1ccc(O)c2O", "note": "[A-77636]", "values": [{"measurement": "changes in spontaneous alternations in PNE mice (Y-maze)", "setting": "PNE mice", "result": "neither the D1 nor the D2/D3 agonist produces significant changes"}]}
